Laboratory results reported in ChEMBL document CHEMBL1201862, “PubChem BioAssay data set” (2004).
Active and inactive are the calls of the source.

Columns and labels:
[1] = target: Polyadenylate-binding protein 1 (Homo sapiens, UniProt P11940); test: PABP poly(A) RNA binding inhibitors, primary screen, biochemical, fluorescence polarization, uHTS (AID 2014)
[2] = Luminescence Cell-Based Dose Confirmation HTS to Identify Inhibitors of Platelet Dense Granule Release. [Related pubchem assays: 1663 (Primary HTS), 1678 (Summary of Project)]; type: functional
[3] = target: Eukaryotic translation initiation factor 4H (Homo sapiens, UniProt Q15056); test: human eIF4H binding inhibitors, primary screen, translation initiation inhibitor project, biochemical, uHTS, fluorescence polarization (AID 2012)
[4] = target: Luciferin 4-monooxygenase (Photinus pyralis, UniProt P08659); test: firefly luciferase enzyme inhibitors, dose response, biochemical, luminescence (AID 1891)
Sequence of Luciferin 4-monooxygenase (P08659 whole entry): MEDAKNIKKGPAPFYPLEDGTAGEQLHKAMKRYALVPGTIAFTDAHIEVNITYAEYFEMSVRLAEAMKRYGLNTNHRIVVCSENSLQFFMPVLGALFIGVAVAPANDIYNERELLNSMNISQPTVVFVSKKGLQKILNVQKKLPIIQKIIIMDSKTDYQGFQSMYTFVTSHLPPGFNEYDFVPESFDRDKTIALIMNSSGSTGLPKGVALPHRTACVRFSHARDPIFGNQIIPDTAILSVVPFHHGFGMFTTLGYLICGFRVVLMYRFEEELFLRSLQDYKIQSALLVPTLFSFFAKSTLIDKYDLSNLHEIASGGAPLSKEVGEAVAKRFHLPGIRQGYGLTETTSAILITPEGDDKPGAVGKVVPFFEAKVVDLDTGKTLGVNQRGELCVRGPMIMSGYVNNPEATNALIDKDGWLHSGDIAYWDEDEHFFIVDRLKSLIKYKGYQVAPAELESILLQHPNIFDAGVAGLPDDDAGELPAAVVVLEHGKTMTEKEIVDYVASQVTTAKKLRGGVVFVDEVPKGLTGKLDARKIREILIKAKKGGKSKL

[5] = cytotoxicity in HEK-293T cells, dose response, cytotoxicity control for BCR NF-kB inhibitor project, luminescence, B-cell screen hits (AID 489021); type: functional, cell-based;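 also: HEK-293T cells carrying an NF-kB luciferase reporter; cells exposed to compound for about 14 hours before viability readout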
[6] = target: T1, SUMO-activating enzyme (Homo sapiens, UniProt Q9UBT2); test: SUMOylation inhibitor hit validation, confirmation, SUMOylation inhibitor project, biochemical, AlphaScreen (AID 2018); type: functional
T1 sequence (Q9UBE0 whole entry): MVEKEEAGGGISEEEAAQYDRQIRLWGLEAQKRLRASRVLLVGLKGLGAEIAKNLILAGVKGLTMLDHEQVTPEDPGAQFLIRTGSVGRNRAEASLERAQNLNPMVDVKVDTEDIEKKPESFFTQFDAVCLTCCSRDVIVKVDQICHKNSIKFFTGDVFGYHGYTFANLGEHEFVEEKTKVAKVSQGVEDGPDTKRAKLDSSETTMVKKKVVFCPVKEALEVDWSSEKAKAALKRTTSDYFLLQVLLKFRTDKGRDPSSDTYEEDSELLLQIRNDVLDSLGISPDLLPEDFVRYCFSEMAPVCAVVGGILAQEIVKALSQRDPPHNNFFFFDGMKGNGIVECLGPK
T1 sequence (Q9UBT2 whole entry): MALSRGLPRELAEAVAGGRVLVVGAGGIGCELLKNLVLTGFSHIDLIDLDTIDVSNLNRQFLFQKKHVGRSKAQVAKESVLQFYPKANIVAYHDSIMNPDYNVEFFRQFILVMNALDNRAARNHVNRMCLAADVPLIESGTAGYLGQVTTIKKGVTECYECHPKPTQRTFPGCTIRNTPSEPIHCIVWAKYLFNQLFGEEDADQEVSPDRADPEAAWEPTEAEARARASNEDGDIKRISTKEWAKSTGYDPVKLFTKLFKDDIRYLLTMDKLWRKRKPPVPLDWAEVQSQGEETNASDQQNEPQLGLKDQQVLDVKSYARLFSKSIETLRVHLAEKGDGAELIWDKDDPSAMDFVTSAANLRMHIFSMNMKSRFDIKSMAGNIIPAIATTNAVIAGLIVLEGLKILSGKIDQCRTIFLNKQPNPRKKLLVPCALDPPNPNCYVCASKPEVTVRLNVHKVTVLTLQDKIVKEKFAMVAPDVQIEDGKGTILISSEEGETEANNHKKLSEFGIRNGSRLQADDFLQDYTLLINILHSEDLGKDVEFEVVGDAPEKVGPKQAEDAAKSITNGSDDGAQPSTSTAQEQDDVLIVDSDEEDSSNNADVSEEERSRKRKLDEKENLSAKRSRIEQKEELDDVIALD

[7] = target: T2, Heat shock factor protein 1 (Mus musculus, UniProt P38532); test: HSF1 potentiators in luciferase reporter cells, confirmation, cell-based, NIH3T3, luminescence, dose retest (AID 435004); type: functional;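 also: stress induced by proteasome inhibitor MG132 added 30 min after compound; luciferase reporter driven by HSF1 response element in NIH3T3 cells; actives raise luminescence as potentiators of the MG132 stress response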
T2 sequence (P38532 whole entry): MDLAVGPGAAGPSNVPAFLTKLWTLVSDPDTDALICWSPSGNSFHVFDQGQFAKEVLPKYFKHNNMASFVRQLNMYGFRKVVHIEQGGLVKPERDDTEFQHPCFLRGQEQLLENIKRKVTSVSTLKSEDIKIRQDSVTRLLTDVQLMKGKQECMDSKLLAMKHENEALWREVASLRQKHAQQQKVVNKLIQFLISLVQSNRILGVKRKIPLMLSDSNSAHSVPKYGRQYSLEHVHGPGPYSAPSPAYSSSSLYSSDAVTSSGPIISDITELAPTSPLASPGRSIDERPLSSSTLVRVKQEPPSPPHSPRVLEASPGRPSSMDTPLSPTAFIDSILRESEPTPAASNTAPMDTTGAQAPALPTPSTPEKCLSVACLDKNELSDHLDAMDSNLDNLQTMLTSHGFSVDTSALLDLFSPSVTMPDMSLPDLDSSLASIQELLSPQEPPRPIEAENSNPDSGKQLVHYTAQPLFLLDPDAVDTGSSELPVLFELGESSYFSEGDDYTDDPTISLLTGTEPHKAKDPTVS

[8] = target: T1, SUMO-activating enzyme; test: inhibitors of in vitro SUMOylation cascade, primary screen, biochemical, HTRF, uHTS (AID 2006); type: protein-complex assay
[9] = target: DNA damage-inducible transcript 3 protein (Mus musculus, UniProt P35639); type: functional, Cricetulus griseus
[10] = target: X-box-binding protein 1 (Homo sapiens, UniProt P17861); type: functional, Cricetulus griseus;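 also: confirmatory dose-response counter-screen serving a CHOP assay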
Sequence of X-box-binding protein 1 (P17861 whole entry): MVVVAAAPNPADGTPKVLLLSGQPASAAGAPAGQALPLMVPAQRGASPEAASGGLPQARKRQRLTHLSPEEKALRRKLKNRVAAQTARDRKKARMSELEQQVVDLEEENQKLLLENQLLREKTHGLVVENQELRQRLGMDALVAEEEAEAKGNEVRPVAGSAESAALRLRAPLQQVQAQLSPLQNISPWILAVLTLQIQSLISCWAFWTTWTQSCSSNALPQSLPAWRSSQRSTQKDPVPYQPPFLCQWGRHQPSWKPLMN

[11] = tested on: HEK293; test: NOD2 signaling inhibitors in MDP-stimulated cells, cell-based, uHTS, luminescence (AID 2001); type: functional; conditions: Homo sapiens
[12] = target: Tumor necrosis factor (Homo sapiens, UniProt P01375); test: TNFa-triggered NF-kB activation inhibitors, SAR follow-up, cell-based, revised (AID 2337); type: functional
Sequence of Tumor necrosis factor (P01375 whole entry): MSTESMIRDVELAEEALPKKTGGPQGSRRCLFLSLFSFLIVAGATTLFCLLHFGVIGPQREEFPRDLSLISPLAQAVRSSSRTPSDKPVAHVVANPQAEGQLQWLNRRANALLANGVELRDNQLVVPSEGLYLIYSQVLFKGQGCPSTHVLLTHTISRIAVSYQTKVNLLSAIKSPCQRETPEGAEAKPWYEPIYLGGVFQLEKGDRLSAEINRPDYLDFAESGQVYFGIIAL

[13] = tested on: HEK293; test: cells; conditions: Homo sapiens
[14] = tested on: Streptococcus sp. 'group A'; test: growth inhibition of control SK(-) GAS strain, dose response, counter-screen for streptokinase expression inhibitor project, luminescence, kanamycin, BacTiterGlo, confirmation (AID 1900); type: functional, organism-based
[15] = tested on: HEK293; test: cells; type: functional, cell-based; conditions: Homo sapiens
[16] = target: T3, Nucleotide-binding oligomerization domain-containing protein 2 (Homo sapiens, UniProt Q9HC29); test: NOD2 signaling inhibitors, cell-based, luminescence, uHTS, HEK293 (AID 1566); type: functional
T3 sequence (Q9HC29 whole entry, the tested form may be a part): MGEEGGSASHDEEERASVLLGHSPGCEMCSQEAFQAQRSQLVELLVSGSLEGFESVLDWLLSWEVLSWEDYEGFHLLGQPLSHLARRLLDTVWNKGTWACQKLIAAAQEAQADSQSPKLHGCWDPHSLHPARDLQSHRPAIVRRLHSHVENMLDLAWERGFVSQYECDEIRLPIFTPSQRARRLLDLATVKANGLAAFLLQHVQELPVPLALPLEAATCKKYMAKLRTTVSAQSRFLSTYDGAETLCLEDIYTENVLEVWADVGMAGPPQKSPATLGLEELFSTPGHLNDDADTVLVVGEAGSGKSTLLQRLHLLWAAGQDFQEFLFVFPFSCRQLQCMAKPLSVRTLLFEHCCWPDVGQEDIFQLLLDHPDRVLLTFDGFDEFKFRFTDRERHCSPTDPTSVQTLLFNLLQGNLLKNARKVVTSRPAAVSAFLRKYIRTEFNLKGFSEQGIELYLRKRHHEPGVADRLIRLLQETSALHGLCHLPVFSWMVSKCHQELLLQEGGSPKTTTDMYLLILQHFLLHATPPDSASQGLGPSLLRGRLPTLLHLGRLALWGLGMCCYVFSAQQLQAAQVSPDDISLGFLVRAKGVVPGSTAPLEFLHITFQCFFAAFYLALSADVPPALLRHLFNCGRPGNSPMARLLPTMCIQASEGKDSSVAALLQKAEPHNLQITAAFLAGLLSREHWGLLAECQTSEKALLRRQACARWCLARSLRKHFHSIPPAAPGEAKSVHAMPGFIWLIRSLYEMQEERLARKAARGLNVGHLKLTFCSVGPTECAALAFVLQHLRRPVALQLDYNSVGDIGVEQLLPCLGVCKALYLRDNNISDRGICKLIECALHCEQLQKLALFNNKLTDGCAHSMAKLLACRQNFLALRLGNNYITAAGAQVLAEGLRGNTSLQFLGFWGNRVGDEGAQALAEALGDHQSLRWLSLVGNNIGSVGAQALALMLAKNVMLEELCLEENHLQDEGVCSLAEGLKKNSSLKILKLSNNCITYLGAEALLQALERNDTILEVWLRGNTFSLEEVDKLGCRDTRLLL

[17] = tested on: HEK293; test: cells; type: functional, cell-based; conditions: Homo sapiens; remark: listed apart in the source
[18] = tested on: Streptococcus; test: Group A Streptococcus viability loss, dose response, counter-screen for streptokinase expression inhibitor project, luminescence, BacTiterGlo (AID 1915); type: functional, organism-based;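 also: potency for reduction of bacterial viability or growth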
[19] = target: T3, Nucleotide-binding oligomerization domain-containing protein 2; test: PubChem AID 2334; type: functional
[20] = target: T4, Nucleotide-binding oligomerization domain-containing protein 1 (Homo sapiens, UniProt Q9Y239); test: NOD1 signaling inhibitors, SAR follow-up, revised (AID 2333); type: functional
T4 sequence (Q9Y239 whole entry): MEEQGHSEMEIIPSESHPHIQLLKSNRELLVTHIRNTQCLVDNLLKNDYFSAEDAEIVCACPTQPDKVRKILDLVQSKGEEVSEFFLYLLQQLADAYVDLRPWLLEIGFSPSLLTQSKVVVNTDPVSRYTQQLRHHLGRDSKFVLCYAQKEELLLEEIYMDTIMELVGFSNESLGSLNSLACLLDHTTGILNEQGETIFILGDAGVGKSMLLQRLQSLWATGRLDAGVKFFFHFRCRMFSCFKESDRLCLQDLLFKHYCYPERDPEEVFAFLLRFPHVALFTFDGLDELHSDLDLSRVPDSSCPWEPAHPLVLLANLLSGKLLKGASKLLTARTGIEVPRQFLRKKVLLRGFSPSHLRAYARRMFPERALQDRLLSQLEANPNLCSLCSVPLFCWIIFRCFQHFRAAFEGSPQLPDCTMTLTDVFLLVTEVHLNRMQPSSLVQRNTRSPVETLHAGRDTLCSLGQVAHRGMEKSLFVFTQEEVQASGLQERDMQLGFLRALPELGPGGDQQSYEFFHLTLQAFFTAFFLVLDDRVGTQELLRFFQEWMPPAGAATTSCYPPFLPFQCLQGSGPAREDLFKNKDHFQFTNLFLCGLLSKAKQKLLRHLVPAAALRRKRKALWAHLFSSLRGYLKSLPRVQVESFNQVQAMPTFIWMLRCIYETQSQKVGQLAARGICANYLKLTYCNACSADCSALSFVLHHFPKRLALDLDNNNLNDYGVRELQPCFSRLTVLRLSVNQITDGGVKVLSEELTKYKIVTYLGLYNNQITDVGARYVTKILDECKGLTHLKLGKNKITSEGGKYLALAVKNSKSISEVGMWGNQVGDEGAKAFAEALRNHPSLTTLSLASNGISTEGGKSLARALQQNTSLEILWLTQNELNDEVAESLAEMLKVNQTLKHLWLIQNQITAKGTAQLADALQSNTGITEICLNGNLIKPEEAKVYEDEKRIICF

[21] = tested on: HEK293; test: NOD1 signaling inhibitors, primary screen, cell-based, luminescence, uHTS (AID 1578); type: functional; conditions: Homo sapiens
[22] = tested on: HEK293; test: cells; type: functional, cell-based; conditions: Homo sapiens; remark: listed apart in the source
[23] = target: Mothers against decapentaplegic homolog 3 (Homo sapiens, UniProt P84022); test: Smad3 binding inhibitors, lysate ELISA, dose response, cell lysate, secondary confirmation, chemiluminescent ELISA, HEK293 lysate (AID 1058); type: functional
[24] = target: Eukaryotic translation initiation factor 4E (Mus musculus, UniProt P63073); test: eIF4E–eIF4G protein interaction inhibitors, dose response, biochemical, TR-FRET (AID 855); type: functional;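 also: potency for disrupting eIF4E binding to eIF4GI seen as loss of FRET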
Sequence of Eukaryotic translation initiation factor 4E (P63073 whole entry): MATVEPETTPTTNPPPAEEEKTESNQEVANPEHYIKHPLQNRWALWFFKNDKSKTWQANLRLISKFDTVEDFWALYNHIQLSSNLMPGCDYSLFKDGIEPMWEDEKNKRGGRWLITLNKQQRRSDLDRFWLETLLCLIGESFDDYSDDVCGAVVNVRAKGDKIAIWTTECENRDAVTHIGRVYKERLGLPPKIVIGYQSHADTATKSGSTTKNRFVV

[25] = target: Transitional endoplasmic reticulum ATPase (Homo sapiens, UniProt P55072, C522A); test: C522A mutant p97 ATPase inhibitors, dose response, counter-screen for p97 inhibitor project, biochemical, luminescence (AID 1544)
Sequence of Transitional endoplasmic reticulum ATPase (Homo sapiens, UniProt P55072, C522A) (P55072 2-806 C522A limits assumed): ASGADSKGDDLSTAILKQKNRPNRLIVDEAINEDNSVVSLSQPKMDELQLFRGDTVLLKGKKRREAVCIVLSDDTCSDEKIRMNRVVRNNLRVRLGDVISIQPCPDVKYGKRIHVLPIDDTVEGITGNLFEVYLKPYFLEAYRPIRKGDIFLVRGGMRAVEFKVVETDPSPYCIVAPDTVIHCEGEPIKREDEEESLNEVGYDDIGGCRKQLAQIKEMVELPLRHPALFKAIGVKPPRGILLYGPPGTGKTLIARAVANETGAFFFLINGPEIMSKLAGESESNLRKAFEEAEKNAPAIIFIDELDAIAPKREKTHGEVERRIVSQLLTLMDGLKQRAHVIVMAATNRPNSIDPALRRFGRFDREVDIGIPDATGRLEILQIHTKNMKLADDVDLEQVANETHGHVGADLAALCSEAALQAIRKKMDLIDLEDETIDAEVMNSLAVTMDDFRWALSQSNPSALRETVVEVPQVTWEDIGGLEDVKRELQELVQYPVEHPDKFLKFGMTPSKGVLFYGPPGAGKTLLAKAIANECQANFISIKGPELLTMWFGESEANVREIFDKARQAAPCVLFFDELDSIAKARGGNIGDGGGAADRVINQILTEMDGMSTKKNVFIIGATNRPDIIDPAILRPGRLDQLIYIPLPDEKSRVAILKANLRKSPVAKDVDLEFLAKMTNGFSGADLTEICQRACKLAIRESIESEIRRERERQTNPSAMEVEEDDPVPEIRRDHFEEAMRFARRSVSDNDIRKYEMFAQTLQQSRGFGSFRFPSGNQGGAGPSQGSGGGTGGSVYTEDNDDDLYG

[26] = target: Transitional endoplasmic reticulum ATPase (Homo sapiens, UniProt P55072); test: p97 ATPase inhibitors, dose response, biochemical (AID 1534)

Sequence of Polyadenylate-binding protein 1 (P11940 whole entry): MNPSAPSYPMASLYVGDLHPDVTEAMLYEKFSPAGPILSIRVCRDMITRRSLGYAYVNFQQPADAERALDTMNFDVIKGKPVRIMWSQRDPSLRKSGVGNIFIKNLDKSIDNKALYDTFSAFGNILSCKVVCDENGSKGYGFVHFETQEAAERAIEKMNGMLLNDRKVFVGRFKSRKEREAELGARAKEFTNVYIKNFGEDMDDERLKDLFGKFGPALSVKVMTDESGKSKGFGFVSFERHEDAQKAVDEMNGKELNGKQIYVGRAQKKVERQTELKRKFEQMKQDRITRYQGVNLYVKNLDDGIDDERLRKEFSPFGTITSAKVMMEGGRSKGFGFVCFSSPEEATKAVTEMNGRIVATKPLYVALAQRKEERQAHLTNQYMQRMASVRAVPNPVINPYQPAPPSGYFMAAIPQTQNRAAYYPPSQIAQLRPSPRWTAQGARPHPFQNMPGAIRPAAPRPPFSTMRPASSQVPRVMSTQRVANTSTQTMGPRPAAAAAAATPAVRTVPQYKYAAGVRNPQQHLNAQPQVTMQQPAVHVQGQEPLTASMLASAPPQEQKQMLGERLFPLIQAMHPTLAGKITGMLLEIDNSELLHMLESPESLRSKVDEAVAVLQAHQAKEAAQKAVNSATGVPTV

What does the source list for CCCCn1c2c(c(=N)c3ccccc31)CCC2?
IC50 [1]: 3.5 µM (active); EC50 [2]: 1.25 µM (active); IC50 [3]: > 100 µM (inactive); EC50 [4]: > 112 µM (not active); IC50 [5]: > 80 µM (inactive)

Which results are given for N=c1c(S(=O)(=O)c2ccc(Cl)cc2)cc2c(=O)n3ccccc3nc2n1Cc1ccco1?
IC50 [6]: 20.9 µM (active); EC50 [7]: > 260 µM (inactive); IC50 [8]: 4.47 µM (active)

Which results are given for Cc1cc(C)c2nc(-c3ccccn3)cc(C(=O)Nc3cc(C)on3)c2c1?
Absolute IC50 (CHOP) [9]: 10 µM; Absolute IC50 (XBP1) [10]: 10 µM

What does the source list for CCCCCCCn1c(=O)c(C(=O)Nc2cnccn2)c(O)c2ccccc21?
IC50 [11]: 6.85 µM (active); IC50 [12]: 3.18 µM (active); IC50 [13]: > 20 µM (inactive); EC50 [14]: 2.88 µM (active); IC50 [15]: > 20 µM (inactive); EC50 [16]: 7.83 µM (active); IC50 [17]: > 20 µM (inactive); EC50 [18]: 6.65 µM (active); IC50 [19]: 8.05 µM (active); IC50 [20]: 5.6 µM (active); EC50 [21]: 6.35 µM (active); IC50 [22]: > 20 µM (inactive)

For O=c1cc2oc3cc(O)c(O)cc3c(-c3ccccc3)c-2cc1O, which IC50 [23] is on record?
The IC50 was < 1.25 µM (not active).

For CN(C)[C@@H]1C(O)=C(C(N)=O)C(=O)[C@@]2(O)C(O)=C3C(=O)c4c(O)cccc4[C@@](C)(O)[C@H]3[C@H](O)[C@@H]12 [OXYTETRACYCLINE], which IC50 [24] is on record?
The IC50 was 50 µM (inactive).

And the IC50 [25]?
Its IC50 is > 50 µM (not active).

What about the IC50 [26] of the same compound?
The IC50 was > 50 µM (not active).
